One assay addresses T1, human A2B AdoR (Homo sapiens, UniProt P29275).
T1 construct: expressed in transfected cells; host or cells: HEK-293 (HEK-A2B), membrane preparation
T1 sequence (P29275 1-332): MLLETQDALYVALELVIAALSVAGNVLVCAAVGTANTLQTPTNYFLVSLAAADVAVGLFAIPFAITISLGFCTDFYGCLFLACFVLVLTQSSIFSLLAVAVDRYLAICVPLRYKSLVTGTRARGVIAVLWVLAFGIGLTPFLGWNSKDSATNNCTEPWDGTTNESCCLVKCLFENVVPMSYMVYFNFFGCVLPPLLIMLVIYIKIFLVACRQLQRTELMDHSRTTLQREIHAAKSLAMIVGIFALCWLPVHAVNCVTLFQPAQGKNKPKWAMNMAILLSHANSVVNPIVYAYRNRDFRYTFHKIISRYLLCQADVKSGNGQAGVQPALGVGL
Description: Adenosine receptor radioligand binding assay, A2B. Particulars: competition with 3H-ZM241385, HEK-A2B cell membranes. As for the experimental part: (§1) The cDNAs for human A1, A2A, A2B or A3 AdoRs were prepared by RT-PCR from total RNA of human cells or tissues and sequenced on both strands. The expression vector containing each of these cDNAs and a second vector containing a neomycin or puromycin-resistance gene were introduced to HEK-293 or CHO cells by Lipofectin-Plus (Life Technology). Colonies were selected by growing transfected cells in the presence of neomycin or puromycin. Stably transfected cells were maintained in Dulbecco's modified Eagle's medium (DMEM) or F-12 medium with 10% fetal bovine serum, 100 μg/ml penicillin, 100 μg/ml streptomycin and appropriate concentrations of neomycin or puromycin. These stably transfected cells were referred to as HEK-“AdoR” or CHO-“AdoR” depending on the receptors that they express. The cell lines used routinely were CHO-A1, HEK-A2A, HEK-A2B.and CHO-A3 cells. In addition, hamster DDT1 MF-2 cells that express endogenous A1 AdoRs were also used to determine the binding activities of compounds for A1 AdoRs.
(§2) Monolayers of transfected cells or DDT1 MF-2 were washed with phosphate buffered saline (PBS) and harvested in a buffer containing 10 mM HEPES (pH 7.4), 10 mM EDTA and protease inhibitors. The cells were homogenized in polytron for 1 minute at setting 4 and centrifuged at 29000 g for 15 minutes at 4° C. The cell pellets were washed with a buffer containing 10 mM HEPES (pH7.4), 1 mM EDTA and protease inhibitors, and were resuspended in the same buffer supplemented with 10% sucrose. Frozen aliquots were kept at −80° C.
(§3) The affinities of compounds for A1, A2A, A2B or A3 AdoRs were determined in competition studies using radioligands such as ^3H-CPX (A1 antagonist), or ^3H-CCPA (A1 agonist), ^3H-ZM241385 (A2A antagonist) or ^3H-CGS21680 (A2A agonist), ^3H-ZM241385 (A2B antagonist) or ^125I-AB-MECA (A3 agonist) and membranes of corresponding cells. For example, to determine the affinity for A1 AdoRs, the competition assays were started by mixing 0.5–1 nM ^3H-CPX with various concentrations of test compounds and 25–100 μg membrane proteins of CHO-A1 or DDT1 MF-2 in TE buffer (50 mM Tris and 1 mM EDTA) supplemented with 1 U/ml adenosine deaminase. The assays were incubated for 60–90 minutes, stopped by filtration onto GF/B filter plates using Packard Harvester and washed four times with ice-cold TM buffer (10 mM Tris, 1 mM MgCl2, pH 7.4). The amounts of radioligands that bound to the GF/B filter plates were determined by scintillation counting. Nonspecific binding was determined in the presence of 1–10 μM of cold ligands. Bmax and KD values were calculated using GraphPad software.

The next assay deals with T2, human A1 AdoR (UniProt P30542).
T2 sequence (P30542 1-326): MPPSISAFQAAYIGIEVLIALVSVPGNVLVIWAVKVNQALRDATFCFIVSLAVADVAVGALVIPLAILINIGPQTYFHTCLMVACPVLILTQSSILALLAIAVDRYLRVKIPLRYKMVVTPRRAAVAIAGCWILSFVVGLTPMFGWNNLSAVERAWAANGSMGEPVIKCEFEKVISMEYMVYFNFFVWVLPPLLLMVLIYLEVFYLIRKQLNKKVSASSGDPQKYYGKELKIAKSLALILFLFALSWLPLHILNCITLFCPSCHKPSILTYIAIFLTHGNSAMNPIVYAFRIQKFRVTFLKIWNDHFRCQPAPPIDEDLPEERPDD
Description: Adenosine receptor radioligand binding assay, A1. Particulars: competition with 0.5–1 nM 3H-CPX, membranes of CHO-A1 or DDT1 MF-2 (hamster, endogenous A1). As for the experimental part:
as §1, §2, §3

Data on nine compounds can be found in US7022710B2, “A1 adenosine receptor antagonists” (CV Therapeutics, Inc., priority 2003, dated 2006).

In general, Ki refers to the dissociation constant of the complex between target and ligand, obtained from inhibition or displacement. Low values mean a stronger hold on the target, high ones a looser hold on the target.

Consider “{[3-(aminomethyl)phenyl]methyl}(6-amino-9-propyl-8-pyrazolylpurin-2-yl)amine”, for which the Ki is 7 µM at human A2B AdoR and 0.408 µM on human A1 AdoR.
For `CCn1c(-n2cccn2)nc2c(N)nc(NCc3ccccc3)nc21` [(6-amino-9-ethyl-8-pyrazolylpurin-2-yl)benzylamine], in that order: 1 µM and 0.015 µM.
Regarding “(6-amino-9-propyl-8-pyrazolylpurin-2-yl)[2-(4-fluorophenyl)ethyl]amine”, the Ki on human A2B AdoR is 2.3 µM; at human A1 AdoR, 0.066 µM.
“(6-amino-9-propyl-8-pyrazolylpurin-2-yl)[2-(3-fluorophenyl)ethyl]amine”: the figures for the Ki on human A2B AdoR and at human A1 AdoR were 0.16 µM and 0.028 µM, respectively.
For “(6-amino-9-propyl-8-pyrazolylpurin-2-yl)[2-(2,5-dimethoxyphenyl)ethyl]amine”, in that order: 1.68 µM and 0.182 µM.
For the compound “(4-{[(6-amino-9-propyl-8-pyrazolylpurin-2-yl)amino]methyl}phenyl)methan-1-ol”, the figures for the inhibition constant (Ki) on human A2B AdoR and at human A1 AdoR were 7 µM and 1.79 µM, respectively.
For “(6-amino-9-propyl-8-pyrazolylpurin-2-yl)(2-phenylethyl)amine”, in that order: 0.5 µM and 0.113 µM.
“(6-amino-9-propyl-8-pyrazolylpurin-2-yl)[2-(2-chlorophenyl)ethyl]amine”: the Ki at human A2B AdoR worked out at 3.64 µM; on human A1 AdoR it was 0.382 µM.
With “(6-amino-9-propyl-8-pyrazolylpurin-2-yl)[2-(4-chlorophenyl)ethyl]amine”, the results for the inhibition constant (Ki) at human A2B AdoR and at human A1 AdoR were 5 µM and 1.09 µM, respectively.
